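96-well plates; 48 h exposure; 5 concentrations. Endpoints by linear interpolation between flanking doses. Not reached: highest tested concentration assigned. GI50: concentration for 50% inhibition of growth. Definition used: TGI = concentration required for complete inhibition of growth.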
Legend:
Assay in all cases: NCI-60 cell line screen, 48 h
OVCAR-5 ovarian = system: OVCAR-5 ovarian
HOP-62 NSCLC = system: HOP-62 NSCLC
U251 CNS = system: U251 CNS
SNB-75 CNS = system: SNB-75 CNS
A498 renal = system: A498 renal
SW-620 colon = system: SW-620 colon
IGROV1 ovarian = system: IGROV1 ovarian
UACC-257 melanoma = system: UACC-257 melanoma
MCF7 breast = system: MCF7 breast
SK-MEL-2 melanoma = system: SK-MEL-2 melanoma

| SMILES | GI50 (OVCAR-5 ovarian) | TGI (OVCAR-5 ovarian) | GI50 (HOP-62 NSCLC) | TGI (HOP-62 NSCLC) | GI50 (U251 CNS) | TGI (U251 CNS) | GI50 (SNB-75 CNS) | TGI (SNB-75 CNS) | GI50 (A498 renal) | TGI (A498 renal) | GI50 (SW-620 colon) | TGI (SW-620 colon) | GI50 (IGROV1 ovarian) | TGI (IGROV1 ovarian) | GI50 (UACC-257 melanoma) | TGI (UACC-257 melanoma) | GI50 (MCF7 breast) | TGI (MCF7 breast) | GI50 (SK-MEL-2 melanoma) | TGI (SK-MEL-2 melanoma) |
| --- | --- | --- | --- | --- | --- | --- | --- | --- | --- | --- | --- | --- | --- | --- | --- | --- | --- | --- | --- | --- |
| O=c1oc2ccc(F)cc2c(=O)n1-c1ccc(Br)cc1F | 3.94 µM | > 100 µM | 1.64 µM | 7.25 µM | 0.786 µM | > 100 µM | 0.252 µM | 2.79 µM | 0.184 µM | 0.72 µM | 1.11 µM | 25.5 µM | 0.444 µM | 22.7 µM | 0.528 µM | 7.37 µM | 2.04 µM | > 29.5 µM | 0.46 µM | 3.98 µM |
| COC(=O)C(C(=O)C(=O)NC1Nc2ccc(C)cc2S1)c1nc2ccc(Cl)cc2[nH]c1=O (centres undefined) | – | > 100 µM | – | > 100 µM | – | > 100 µM | – | > 100 µM | – | > 100 µM | – | > 100 µM | – | > 100 µM | – | > 100 µM | – | > 100 µM | – | > 100 µM |
| Nc1ncnc2c1c(-c1ccc(Oc3ccccc3)cc1)nn2C[C@@H]1SSC[C@@H]1O | 2.16 µM | 26.2 µM | 0.202 µM | 1.24 µM | 0.853 µM | 8.71 µM | 1.78 µM | 7.56 µM | 2.01 µM | 5.35 µM | 0.432 µM | > 84 µM | 0.839 µM | 3.26 µM | 0.374 µM | 11.9 µM | 0.129 µM | 1.31 µM | 0.212 µM | 0.502 µM |
| CN(C)C/C=C/C(=O)Nc1ccc(C(=O)N2CCC[C@@H](Nc3ncc(Cl)c(-c4c[nH]c5ccccc45)n3)C2)cc1 | 0.328 µM | 11.6 µM | 0.432 µM | 5.74 µM | 0.306 µM | 10 µM | 0.0978 µM | 0.444 µM | 0.192 µM | 0.495 µM | 0.191 µM | 5.74 µM | 0.149 µM | 11.3 µM | 0.234 µM | 1.32 µM | 0.0427 µM | 7.16 µM | 0.115 µM | 0.392 µM |
| O=C(O)C1C(C(=O)O)C2(Cl)C(Cl)=C(Cl)C1(Cl)C2(Cl)Cl.[Cd] (centres undefined) | 18.2 µM | 32.9 µM | 22.7 µM | 48.6 µM | 11.2 µM | 24.9 µM | 10.7 µM | 26.4 µM | > 100 µM | > 100 µM | 23.1 µM | 77.1 µM | 17.7 µM | 34.2 µM | 15.5 µM | 30.7 µM | 17.3 µM | 35.9 µM | 9.22 µM | 26.8 µM |
| C=CC(=O)Nc1cccc(Nc2nc(Nc3ccc(OCCOC(F)F)cc3)ncc2F)c1 | 4.12 µM | > 100 µM | 2.38 µM | 17.2 µM | 2.39 µM | 18.9 µM | 0.848 µM | 5 µM | 0.408 µM | 1.83 µM | 3.27 µM | > 100 µM | 1.88 µM | 9.61 µM | 5.56 µM | 47.5 µM | 3 µM | 41.2 µM | 1.8 µM | 6.82 µM |
| CCCCCCCCCCCCCCCCS(=O)(=O)c1ccc(NN)cc1 | – | > 10 µM | – | > 10 µM | – | > 10 µM | – | – | – | > 10 µM | – | > 10 µM | – | > 10 µM | – | > 10 µM | – | > 10 µM | – | > 10 µM |
| O=c1[nH]c2cc(Cl)c(Cl)cc2n2cc3ccccc3c12 | 17.1 µM | 30.8 µM | – | – | 16.4 µM | 30 µM | 21.6 µM | 53.3 µM | 15.8 µM | 29.9 µM | 15.8 µM | 29.2 µM | 17.4 µM | 31.2 µM | 20.3 µM | 48.6 µM | 21.4 µM | 39.5 µM | 24.9 µM | 54 µM |
| CCOCNc1ccc(N2C(=O)/C(=C/c3ccc(N(CC)CC)cc3)N=C2c2ccccc2)cc1 | > 100 µM | > 100 µM | 12.6 µM | 35.3 µM | 3.85 µM | 33 µM | 16.2 µM | 81.2 µM | 35.4 µM | > 100 µM | 41.5 µM | > 100 µM | – | – | > 100 µM | > 100 µM | 36.5 µM | > 100 µM | 13.7 µM | 31 µM |
| COc1ccccc1/C=C\C(=O)c1ccccc1 | 17.7 µM | 32.5 µM | 17.3 µM | 32.6 µM | 4.25 µM | 16.8 µM | 13.6 µM | 27 µM | 16.3 µM | 35.7 µM | – | – | 5.14 µM | 18.1 µM | 12.9 µM | 26.2 µM | 1.92 µM | 12.6 µM | 4.36 µM | 14.6 µM |
| C1=C2CNCC3=Cc4ccc5ccccc5c4OC23Oc2c1ccc1ccccc21 | – | – | 4.47 µM | 16.7 µM | 3.26 µM | 14.8 µM | 2.32 µM | 11.5 µM | 3.87 µM | 17 µM | 2.52 µM | 10.5 µM | 9.59 µM | 28.7 µM | 12.6 µM | 38.7 µM | 2.83 µM | 12.7 µM | 5.47 µM | 22.8 µM |
| COc1cc([C@H]2c3[nH]c4ccccc4c3C[C@H]3COC(=O)N32)cc(OC)c1O | – | > 100 µM | – | 34.2 µM | – | 19 µM | – | 3.2 µM | – | 20.9 µM | – | > 70 µM | – | > 86.3 µM | – | > 100 µM | – | 37.1 µM | – | – |
| COc1ccc(NC(=O)c2sc3nc4c(cc3c2N)CCCC4)cc1 | 7.28 µM | > 100 µM | 0.752 µM | > 100 µM | 0.652 µM | > 100 µM | 0.342 µM | 11.6 µM | 0.237 µM | 1.73 µM | 0.429 µM | > 100 µM | 0.929 µM | > 100 µM | – | – | 0.348 µM | > 100 µM | 0.369 µM | 4.69 µM |
| CCC(=O)c1cc([N+](=O)[O-])c(Br)s1 | 16.6 µM | 32.1 µM | 2.25 µM | 4.54 µM | 1.85 µM | 4.02 µM | 10.4 µM | 22.2 µM | 17.3 µM | 31.3 µM | 1.65 µM | 3.19 µM | – | – | 1.21 µM | 2.52 µM | 2.89 µM | 12.3 µM | – | – |
